These results are taken from ChEMBL document CHEMBL3045362, “Iodine catalyzed one-pot synthesis of chloro-substituted linear and angular indoloquinolines and in vitro antiproliferative activity study of different indoloquinolines” (Med Chem Res, 2013).

The test system of one experiment is MCF7. The experiment is described as follows: Cytotoxicity against Homo sapiens (human) MCF-7 cells assessed as survival after 48 hr by MTT assay. The class given is functional, cell-based. As to conditions: MCF7, 48 h. In general terms: Tetrazolium dyes change colour on reduction, which living cells bring about.
The test system of the next experiment is HepG2. Kind of experiment: Cytotoxicity against Homo sapiens (human) HepG2 cells assessed as survival after 48 hr by MTT assay. Type of experiment: functional, cell-based. The settings on record: HepG2, 48 h.

≈ marks a conversion by molar mass, not a printed value.

Turning to `c1ccc2[nH]c3nc4ccccc4c-3cc2c1`, the IC50 in the experiment with MCF7 and in the experiment with HepG2 was > 1000 µg/mL in each case.

As for `Cc1cccc2cc3c(nc12)[nH]c1ccccc13`, the IC50 (in general, the concentration that inhibits the measured activity by half) with MCF7 was 5.5 µg/mL (≈ 23.7 µM); in the experiment on HepG2, 5.4 µg/mL (≈ 23.2 µM).

Regarding `c1ccc2c(c1)ccc1cc3c(nc12)[nH]c1ccccc13`, the IC50 in the experiment on MCF7 came out at 71.4 µg/mL (≈ 266 µM); in the experiment with HepG2 it was 98.1 µg/mL (≈ 366 µM).

As for `Brc1ccc2cc3c(nc2c1)[nH]c1ccccc13`, the figures for the IC50 in the experiment with MCF7 and in the experiment on HepG2 were 42.8 µg/mL (≈ 144 µM) and 34 µg/mL (≈ 114 µM), respectively.
